Laboratory results published in patent US12240862B2, “Inhibitors of peptidylarginine deiminases” (Gilead Sciences, Inc., priority 2020, dated 2025).

target: T1, human PAD4 (Homo sapiens, UniProt Q9UM07); assay: In vitro PAD4 BAEE biochemical assay; settings: human PAD4, BAEE substrate; 5 nM PAD4, 2 mM calcium chloride, 3 mM BAEE; geometric mean of multiple experiments
T1 construct: human PAD4 (NM_012387), A2P663, was PCR amplified; His-SUMO (N, cleaved yes); made in house; host or cells: E. coli BL21(DE3)
How it was run: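 Ammonia generated from BAEE serves as the readout, measured by o-phthalaldehyde after EDTA termination. Final conditions: 5 nM human PAD4 (SUMO tag cleaved), 2 mM CaCl2, 3 mM BAEE, pH 7.6 MOPS buffer, 25 °C for 2 h following a 30-min compound preincubation.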

T1 sequence (Q9UM07 2-663): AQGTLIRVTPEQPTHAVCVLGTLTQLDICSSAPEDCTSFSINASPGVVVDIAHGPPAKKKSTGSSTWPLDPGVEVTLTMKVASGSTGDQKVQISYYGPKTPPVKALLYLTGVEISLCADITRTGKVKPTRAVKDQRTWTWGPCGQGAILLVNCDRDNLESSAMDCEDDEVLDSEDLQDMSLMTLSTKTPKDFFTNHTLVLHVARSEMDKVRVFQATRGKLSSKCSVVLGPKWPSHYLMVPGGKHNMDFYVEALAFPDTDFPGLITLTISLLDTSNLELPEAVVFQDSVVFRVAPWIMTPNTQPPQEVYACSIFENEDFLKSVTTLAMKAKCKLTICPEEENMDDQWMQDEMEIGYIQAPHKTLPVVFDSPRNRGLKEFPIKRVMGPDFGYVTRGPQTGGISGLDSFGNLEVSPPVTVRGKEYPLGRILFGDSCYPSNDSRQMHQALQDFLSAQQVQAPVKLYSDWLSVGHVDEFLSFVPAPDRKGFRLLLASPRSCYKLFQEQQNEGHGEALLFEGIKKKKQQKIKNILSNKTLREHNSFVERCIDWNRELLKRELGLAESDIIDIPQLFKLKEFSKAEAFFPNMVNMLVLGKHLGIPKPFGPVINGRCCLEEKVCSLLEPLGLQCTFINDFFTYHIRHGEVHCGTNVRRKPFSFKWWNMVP

| Molecule | IC50 [nM] |
| --- | --- |
| COc1cc(C(=O)N2CC[C@@H](OC)[C@@H](N)C2)cc2nc(-c3cc4ccc([C@@H](C)NC(=O)c5ccccc5)nc4n3CC3CC3)c(C)n12 [Example 114, ~{N}-[(1~{R})-1-[2-[7-[(3~{S},4~{R})-3-amino-4-methoxypiperidine-1-carbonyl]-5-methoxy-3-methylimidazo [1,2-a]pyridin-2-yl]-1-(cyclopropylmethyl)pyrrolo [2,3-b]pyridin-6-yl]ethyl]benzamide] | 220 |
| [(1~{R},2~{R},4~{S})-2- amino-7-azabicyclo [2.2.1]heptan-7-yl]-[2-[6- ethyl-1-[(1~{R},2~{R})-2- phenylcyclopropyl]methyl] pyrrolo[2,3-b] pyridin-2-yl]-5-methoxy-3- methylimidazo[1,2-a] pyridin-7-yl]methanone [Example 492] | 2090 |
| CCC(CC(=O)N1CCCC1)c1ccc2cc(-c3nc4cc(C(=O)N5[C@H]6CC[C@@H]5[C@H](N)C6)cc(OC)n4c3C)n(CC3CC3)c2n1 (some centres unmarked) [Example 540, 3-[2-[7-[(1~{R},2~{R}, 4~{S})-2-amino-7-azabicyclo[2.2.1]heptane-7-carbonyl]-5-methoxy-3-methylimidazo[1,2-a]pyridin-2-yl]-1-(cyclopropylmethyl)pyrrolo[2,3-b]pyridin-6-yl]-1-pyrrolidin-1-ylpentan-1-one] | 102 |
| COc1cc(C(=O)N2[C@H]3CC[C@@H]2[C@H](N)C3)cc2nc(-c3cc4ccc([C@H](C)CC(=O)N5CCCC5)nc4n3CC3CC3)c(C)n12 [Example 522, (3~{R})-3-[2-[7-[(1~{R},2~{R},4~{S})-2-amino-7-azabicyclo[2.2.1]heptane-7-carbonyl]-5-methoxy-3-methylimidazo [1,2-a]pyridin-2-yl]-1-(cyclopropylmethyl)pyrrolo[2,3-b]pyridin-6-yl]-1-pyrrolidin-1-ylbutan-1-one] | 135 |
| COc1cc(C(=O)N2C[C@@H]3C[C@]3(N)C2)cc2nc(-c3cc4ccc([C@@H](C)NC(=O)C56CC(F)(C5)C6)nc4n3CC3CC3)c(C)n12 [Example 25, ~{N}-[(1~{R})-1-[2-[7-[(1~{R},5~{S})-1-amino-3-azabicyclo [3.1.0]hexane-3-carbonyl]-5-methoxy-3-methylimidazo [1,2-a]pyridin-2-yl]-1-(cyclopropylmethyl)pyrrolo[2,3-b]pyridin-6-yl]ethyl]-3-fluorobicyclo[1.1.1] pentane-1-carboxamide] | 4450 |
| COc1cc(C(=O)N2[C@H]3CC[C@@H]2[C@H](N)C3)cc2nc(-c3cc4ccc([C@@H](C)NC(=O)C5(C(F)F)CC5)nc4n3CC3CC3)c(C)n12 [Example 137, ~{N}-[(1~{R})-1-[2-[7-[(1~{R},2~{R},4~{S})-2-amino-7-azabicyclo[2.2.1]heptane-7-carbonyl]-5-methoxy-3-methylimidazo [1,2-a]pyridin-2-yl]-1-(cyclopropylmethyl)pyrrolo [2,3-b]pyridin-6-yl]ethyl]-1-(difluoromethyl) cyclopropane-1-carboxamide] | 107 |
| CCc1ccc2cc(-c3nc4cc(C(=O)N5CCC[C@@H](N)C5)cc(OC)n4c3C3CCC3)n(CC3CC3)c2n1 [Example 576, [(3~{R})-3-aminopiperidin-1-yl]-[3-cyclobutyl-2-[1-(cyclopropylmethyl)-6-ethylpyrrolo[2,3-b]pyridin-2-yl]-5-methoxyimidazo [1,2-a]pyridin-7-yl]methanone] | 2150 |
| COc1cc(C(=O)N2[C@H]3CC[C@@H]2[C@H](N)C3)cc2nc(-c3cc4ccc(N5CCCC(C(C)C)S5(=O)=O)nc4n3CC3CC3)c(C)n12 (some centres unmarked) [Example 452, [(1~{R},2~{R},4~{S})-2-amino-7-azabicyclo [2.2.1]heptan-7-yl]-[2-[1-(cyclopropylmethyl)-6-(1,1-dioxo-6-propan-2-ylthiazinan-2-yl)pyrrolo [2,3-b]pyridin-2-yl]-5-methoxy-3-methylimidazo [1,2-a]pyridin-7-yl]methanone] | 246 |
| COc1cc(C(=O)N2CC[C@H]3CCN[C@H]3C2)cc2nc(-c3cc4ccc([C@@H](C)NC(=O)c5ccccc5)nc4n3CC3CC3)c(C)n12 [Example 59, ~{N}-[(1~{R})-1-[2-[7-[(3~{a}~{R}, 7~{a}~{R})-1,2,3,3~{a},4,5,7,7~{a}-octahydropyrrolo[2,3-c]pyridine-6-carbonyl]-5-methoxy-3-methylimidazo[1,2-a]pyridin-2-yl]-1-(cyclopropylmethyl)pyrrolo[2,3-b]pyridin-6-yl]ethyl]benzamide] | 194 |
| COc1cc(C(=O)N2[C@H]3CC[C@@H]2[C@H](N)C3)cc2nc(-c3cc4ccc(C5CCCCN5C(=O)C(C)(C)C)nc4n3CC3CC3)c(C)n12 (stereo partly drawn) [Example 514, 1-(2-(2-(7-((1R,2R,4S)-2-amino-7-azabicyclo[2.2.1]heptane-7-carbonyl)-5-methoxy-3-methylimidazo[1,2-a]pyridin-2-yl)-1-(cyclopropylmethyl)-1H-pyrrolo[2,3-b]pyridin-6-yl)piperidin-1-yl)-2,2-dimethylpropan-1-one] | 741 |
| COc1cc(C(=O)N2[C@H]3CC[C@@H]2[C@H](N)C3)cc2nc(-c3cc4ccc(C(C)CC(=O)NC(C)(C)C)nc4n3CC3CC3)c(C)n12 (some centres unmarked) [Example 521, 3-[2-[7-[(1~{R},2~{R}, 4~{S})-2-amino-7-azabicyclo[2.2.1]heptane-7-carbonyl]-5-methoxy-3-methylimidazo[1,2-a]pyridin-2-yl]-1-(cyclopropylmethyl)pyrrolo [2,3-b]pyridin-6-yl]-~{N}-~{tert}-butylbutanamide] | 122 |
| COc1cc(C(=O)N2[C@H]3CC[C@@H]2[C@H](N)C3)cc2nc(-c3cc4ccc([C@@H](C)NC(=O)C5CC5)nc4n3CC3CC3)c(C)n12 [Example 78, ~{N}-[(1~{R})-1-[2-[7-[(1~{R},2~{R},4~{S})-2-amino-7-azabicyclo[2.2.1]heptane-7-carbonyl]-5-methoxy-3-methylimidazo [1,2-a]pyridin-2-yl]-1-(cyclopropylmethyl)pyrrolo [2,3-b]pyridin-6-yl]ethyl] cyclopropanecarboxamide] | 41.4 |
| COc1cc(C(=O)N2[C@H]3CC[C@@H]2[C@H](N)C3)cc2nc(-c3cc4ccc([C@@H](C)Nc5ncccn5)nc4n3CC3CC3)c(C)n12 [Example 265, ((1R,2R,4S)-2-amino-7-azabicyclo[2.2.1]heptan-7-yl)(2-(1-(cyclopropylmethyl)-6-((R)-1-(pyrimidin-2-ylamino)ethyl)-1H-pyrrolo[2,3-b]pyridin-2-yl)-5-methoxy-3-methylimidazo[1,2-a]pyridin-7-yl)methanone] | 72 |
| COc1cc(C(=O)N2[C@H]3CC[C@@H]2[C@H](N)C3)cc2nc(-c3cc4ccc([C@@H](C)NC(=O)c5cnn6c5CCC6)nc4n3CC3CC3)c(C)n12 [Example 74, ~{N}-[(1~{R})-1-[2-[7-[(1~{R},2~{R},4~{S})-2-amino-7-azabicyclo[2.2.1]heptane-7-carbonyl]-5-methoxy-3-methylimidazo [1,2-a]pyridin-2-yl]-1-(cyclopropylmethyl)pyrrolo [2,3-b]pyridin-6-yl]ethyl]-5,6-dihydro-4~{H}-pyrrolo[1,2-b] pyrazole-3-carboxamide] | 28.3 |
| ~{N}-[(1~{R})-1-[2-[7- [(1~{R},2~{R},4~{S})- 2-amino-7-azabicyclo [2.2.1]heptane- 7-carbonyl]-5-methoxy- 3-methylimidazo [1,2-a]pyridin-2-yl]-1- (cyclopropylmethyl) pyrrolo[2,3-b]pyridin- 6-ylethyl]-2,2- dimethylcyclopropane- 1-carboxamide [Example 70] | 63.2 |
| CC(C)c1c(-c2cc3ccc(N(C(F)F)S(C)(=O)=O)nc3n2CC2CC2)nc2cc(C(=O)N3[C@@H]4CC[C@@H](N)[C@H]3CC4)ccn12 [Example 434] | 3410 |
| COc1cc(C(=O)N2[C@H]3CC[C@@H]2[C@H](N)C3)cc2nc(-c3cc4ccc(N5CCOCCS5(=O)=O)nc4n3CC3CC3)c(C)n12 [Example 451, [(1~{R},2~{R},4~{S})-2-amino-7-azabicyclo [2.2.1]heptan-7-yl]-[2-[1-(cyclopropylmethyl)-6-(4,4-dioxo-1,4,5-oxathiazepan-5-yl)pyrrolo [2,3-b]pyridin-2-yl]-5-methoxy-3-methylimidazo[1,2-a]pyridin-7-yl]methanone] | 21.8 |
| COc1cc(C(=O)N2[C@H]3CC[C@@H]2[C@H](N)C3)cc2nc(-c3cc4ccc(N5[C@@H](C(F)(F)F)CCCS5(=O)=O)nc4n3CC3CC3)c(C)n12 [Example 447, [(1~{R},2~{R},4~{S})-2-amino-7-azabicyclo [2.2.1]heptan-7-yl]-[2-[1-(cyclopropylmethyl)-6-[(3~{R})-1,1-dioxo-3-(trifluoromethyl)thiazinan-2-yl]pyrrolo[2,3-b]pyridin-2-yl]-5-methoxy-3-methylimidazo[1,2-a]pyridin-7-yl]methanone] | 187 |
| COc1cc(C(=O)N2CCC[C@@H](N)C2)cc2nc(-c3cc4ccc(O[C@@H](C)C(=O)N(C)C)nc4n3CC3CC3)c(C)n12 [Example 617, (2~{S})-2-[2-[7-[(3~{R})-3-aminopiperidine-1-carbonyl]-5-methoxy-3-methylimidazo[1,2-a]pyridin-2-yl]-1-(cyclopropylmethyl)pyrrolo [2,3-b]pyridin-6-yl]oxy-~{N},~{N}-dimethylpropanamide] | 6980 |
| COc1cc(C(=O)N2CC[C@H]3CCCN[C@H]3C2)cc2nc(-c3cc4ccc([C@@H](C)NC(=O)C56CC(F)(C5)C6)nc4n3CC3CC3)c(C)n12 [Example 31, ~{N}-[(1~{R})-1-[2-[7-[(4~{a}~{R}, 8~{a}~{R})-2,3,4,4~{a},5,6,8,8~{a}-octahydro-1~{H}-1,7-naphthyridine-7-carbonyl]-5-methoxy-3-methylimidazo [1,2-a]pyridin-2-yl]-1-(cyclopropylmethyl)pyrrolo[2,3-b]pyridin-6-yl]ethyl]-3-fluorobicyclo[1.1.1] pentane-1-carboxamide] | 487 |
